Assay results from PubChem BioAssay (NCI).
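These data come from cells grown in 96-well plates and exposed to compound for 48 hours at five concentrations. At the TGI there is no net growth.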

Experiments:
Assay in all cases: NCI-60 cell line screen, 48 h
786-0 renal = test system: 786-0 renal
A549 NSCLC = test system: A549 NSCLC
ACHN renal = test system: ACHN renal
BT-549 breast = test system: BT-549 breast
CAKI-1 renal = test system: CAKI-1 renal
COLO 205 colon = test system: COLO 205 colon
EKVX NSCLC = test system: EKVX NSCLC
HCC-2998 colon = test system: HCC-2998 colon
HCT-116 colon = test system: HCT-116 colon
HCT-15 colon = test system: HCT-15 colon
HL-60(TB) leukemia = test system: HL-60(TB) leukemia
HOP-62 NSCLC = test system: HOP-62 NSCLC
HOP-92 NSCLC = test system: HOP-92 NSCLC
HS 578T breast = test system: HS 578T breast
HT29 colon = test system: HT29 colon
IGROV1 ovarian = test system: IGROV1 ovarian
K-562 leukemia = test system: K-562 leukemia
KM12 colon = test system: KM12 colon
LOX IMVI melanoma = test system: LOX IMVI melanoma
M14 melanoma = test system: M14 melanoma
MALME-3M melanoma = test system: MALME-3M melanoma
MCF7 breast = test system: MCF7 breast
MDA-MB-231 breast = test system: MDA-MB-231 breast
MDA-MB-435 = test system: MDA-MB-435
MDA-N = test system: MDA-N
MOLT-4 leukemia = test system: MOLT-4 leukemia
NCI-H226 lung = test system: NCI-H226 lung
NCI-H23 lung = test system: NCI-H23 lung
NCI-H460 lung = test system: NCI-H460 lung
NCI-H522 lung = test system: NCI-H522 lung
NCI/ADR-RES ovarian = test system: NCI/ADR-RES ovarian
OVCAR-4 ovarian = test system: OVCAR-4 ovarian
OVCAR-5 ovarian = test system: OVCAR-5 ovarian
OVCAR-8 ovarian = test system: OVCAR-8 ovarian
PC-3 prostate = test system: PC-3 prostate
RPMI-8226 leukemia = test system: RPMI-8226 leukemia
RXF 393 renal = test system: RXF 393 renal
SF-268 CNS = test system: SF-268 CNS
SF-295 CNS = test system: SF-295 CNS
SF-539 CNS = test system: SF-539 CNS
SK-MEL-2 melanoma = test system: SK-MEL-2 melanoma
SK-MEL-28 melanoma = test system: SK-MEL-28 melanoma
SK-MEL-5 melanoma = test system: SK-MEL-5 melanoma
SK-OV-3 ovarian = test system: SK-OV-3 ovarian
SN12C renal = test system: SN12C renal
SNB-19 CNS = test system: SNB-19 CNS
SNB-75 CNS = test system: SNB-75 CNS
SR leukemia = test system: SR leukemia
SW-620 colon = test system: SW-620 colon
T-47D breast = test system: T-47D breast
TK-10 renal = test system: TK-10 renal
U251 CNS = test system: U251 CNS
UACC-257 melanoma = test system: UACC-257 melanoma
UACC-62 melanoma = test system: UACC-62 melanoma
UO-31 renal = test system: UO-31 renal
A498 renal = test system: A498 renal
CCRF-CEM leukemia = test system: CCRF-CEM leukemia
DU-145 prostate = test system: DU-145 prostate
OVCAR-3 ovarian = test system: OVCAR-3 ovarian

In the case of `N#CC1CCN2N=C(c3ccccc3)SC12c1ccccc1` (centres undefined), the TGI (786-0 renal) is reported as > 100 µM, the TGI (A549 NSCLC) is reported as > 100 µM and the TGI (ACHN renal) is reported as > 100 µM. The TGI (BT-549 breast) was > 100 µM, the TGI (CAKI-1 renal) was > 100 µM and the TGI (COLO 205 colon) was > 100 µM. For the same molecule, the TGI (EKVX NSCLC) was 97.3 µM, the TGI (HCC-2998 colon) was > 100 µM and the TGI (HCT-116 colon) was > 100 µM. For the same molecule, the TGI (HCT-15 colon) was > 100 µM, the TGI (HL-60(TB) leukemia) was > 100 µM and the TGI (HOP-62 NSCLC) was > 100 µM. For the same molecule, the TGI (HOP-92 NSCLC) was > 100 µM, the TGI (HS 578T breast) was > 100 µM and the TGI (HT29 colon) was > 100 µM. The TGI (IGROV1 ovarian) was > 100 µM, the TGI (K-562 leukemia) was > 100 µM and the TGI (KM12 colon) was > 100 µM. For the same molecule, the TGI (LOX IMVI melanoma) was > 100 µM, the TGI (M14 melanoma) was > 100 µM and the TGI (MALME-3M melanoma) was > 100 µM. The TGI (MCF7 breast) was > 100 µM, the TGI (MDA-MB-231 breast) was > 100 µM and the TGI (MDA-MB-435) was > 100 µM. For the same molecule, the TGI (MDA-N) was > 100 µM, the TGI (MOLT-4 leukemia) was 83.4 µM and the TGI (NCI-H226 lung) was > 100 µM. The TGI (NCI-H23 lung) was > 100 µM, the TGI (NCI-H460 lung) was > 100 µM and the TGI (NCI-H522 lung) was > 100 µM. For the same molecule, the TGI (NCI/ADR-RES ovarian) was > 100 µM, the TGI (OVCAR-4 ovarian) was > 100 µM and the TGI (OVCAR-5 ovarian) was > 100 µM. For the same molecule, the TGI (OVCAR-8 ovarian) was > 100 µM, the TGI (PC-3 prostate) was > 100 µM and the TGI (RPMI-8226 leukemia) was > 100 µM. The TGI (RXF 393 renal) was > 100 µM, the TGI (SF-268 CNS) was > 100 µM and the TGI (SF-295 CNS) was > 100 µM. For the same molecule, the TGI (SF-539 CNS) was > 100 µM, the TGI (SK-MEL-2 melanoma) was > 100 µM and the TGI (SK-MEL-28 melanoma) was > 100 µM. For the same molecule, the TGI (SK-MEL-5 melanoma) was > 100 µM, the TGI (SK-OV-3 ovarian) was > 100 µM and the TGI (SN12C renal) was > 100 µM. For the same molecule, the TGI (SNB-19 CNS) was > 100 µM, the TGI (SNB-75 CNS) was > 100 µM and the TGI (SR leukemia) was > 100 µM. The TGI (SW-620 colon) was > 100 µM, the TGI (T-47D breast) was > 100 µM and the TGI (TK-10 renal) was > 100 µM. The TGI (U251 CNS) was > 100 µM, the TGI (UACC-257 melanoma) was > 100 µM and the TGI (UACC-62 melanoma) was 29.5 µM. For the same molecule, the TGI (UO-31 renal) was > 100 µM.

`O=C(O)CCCCn1cnc2c(=S)nc[nH]c21` was tested, and the TGI (786-0 renal) was > 100 µM, the TGI (A498 renal) was > 100 µM and the TGI (A549 NSCLC) was > 100 µM. For the same molecule, the TGI (ACHN renal) was > 100 µM, the TGI (BT-549 breast) was > 100 µM and the TGI (CAKI-1 renal) was > 100 µM. The TGI (CCRF-CEM leukemia) was > 100 µM, the TGI (COLO 205 colon) was > 100 µM and the TGI (DU-145 prostate) was > 100 µM. The TGI (EKVX NSCLC) was > 100 µM, the TGI (HCC-2998 colon) was > 100 µM and the TGI (HCT-116 colon) was > 100 µM. The TGI (HCT-15 colon) was > 100 µM, the TGI (HOP-62 NSCLC) was > 100 µM and the TGI (HOP-92 NSCLC) was > 100 µM. For the same molecule, the TGI (HS 578T breast) was > 100 µM, the TGI (HT29 colon) was > 100 µM and the TGI (IGROV1 ovarian) was > 100 µM. For the same molecule, the TGI (K-562 leukemia) was > 100 µM, the TGI (KM12 colon) was > 100 µM and the TGI (LOX IMVI melanoma) was > 100 µM. For the same molecule, the TGI (M14 melanoma) was > 100 µM, the TGI (MALME-3M melanoma) was > 100 µM and the TGI (MCF7 breast) was > 100 µM. The TGI (MDA-MB-231 breast) was > 100 µM, the TGI (MDA-MB-435) was > 100 µM and the TGI (MDA-N) was > 100 µM. For the same molecule, the TGI (MOLT-4 leukemia) was > 100 µM, the TGI (NCI-H226 lung) was > 100 µM and the TGI (NCI-H23 lung) was > 100 µM. The TGI (NCI-H460 lung) was > 100 µM, the TGI (NCI-H522 lung) was > 100 µM and the TGI (NCI/ADR-RES ovarian) was > 100 µM. For the same molecule, the TGI (OVCAR-3 ovarian) was > 100 µM, the TGI (OVCAR-4 ovarian) was > 100 µM and the TGI (OVCAR-5 ovarian) was > 100 µM. For the same molecule, the TGI (OVCAR-8 ovarian) was > 100 µM, the TGI (PC-3 prostate) was > 100 µM and the TGI (RPMI-8226 leukemia) was > 100 µM. For the same molecule, the TGI (RXF 393 renal) was > 100 µM, the TGI (SF-268 CNS) was > 100 µM and the TGI (SF-295 CNS) was > 100 µM. For the same molecule, the TGI (SF-539 CNS) was > 100 µM, the TGI (SK-MEL-2 melanoma) was > 100 µM and the TGI (SK-MEL-28 melanoma) was > 100 µM. For the same molecule, the TGI (SK-MEL-5 melanoma) was > 100 µM, the TGI (SK-OV-3 ovarian) was > 100 µM and the TGI (SN12C renal) was > 100 µM. The TGI (SNB-19 CNS) was > 100 µM, the TGI (SNB-75 CNS) was > 100 µM and the TGI (SR leukemia) was > 100 µM. The TGI (SW-620 colon) was > 100 µM, the TGI (T-47D breast) was > 100 µM and the TGI (TK-10 renal) was > 100 µM. The TGI (U251 CNS) was > 100 µM, the TGI (UACC-257 melanoma) was > 100 µM and the TGI (UACC-62 melanoma) was > 100 µM. For the same molecule, the TGI (UO-31 renal) was > 100 µM.

For `O=C(NNC(=O)c1ccncc1)c1ccncc1`, the TGI (786-0 renal) was > 100 µM, the TGI (A498 renal) was > 100 µM and the TGI (A549 NSCLC) was > 100 µM. The TGI (ACHN renal) was > 100 µM, the TGI (BT-549 breast) was > 100 µM and the TGI (CAKI-1 renal) was > 100 µM. For the same molecule, the TGI (CCRF-CEM leukemia) was > 100 µM, the TGI (COLO 205 colon) was > 100 µM and the TGI (DU-145 prostate) was > 100 µM. For the same molecule, the TGI (EKVX NSCLC) was > 100 µM, the TGI (HCT-116 colon) was > 100 µM and the TGI (HCT-15 colon) was > 100 µM. For the same molecule, the TGI (HL-60(TB) leukemia) was > 100 µM, the TGI (HOP-62 NSCLC) was > 100 µM and the TGI (HOP-92 NSCLC) was > 100 µM. The TGI (HS 578T breast) was > 100 µM, the TGI (HT29 colon) was > 100 µM and the TGI (IGROV1 ovarian) was > 100 µM. For the same molecule, the TGI (K-562 leukemia) was > 100 µM, the TGI (KM12 colon) was > 100 µM and the TGI (LOX IMVI melanoma) was > 100 µM. For the same molecule, the TGI (M14 melanoma) was > 100 µM, the TGI (MALME-3M melanoma) was > 100 µM and the TGI (MCF7 breast) was > 100 µM. For the same molecule, the TGI (MDA-MB-231 breast) was > 100 µM, the TGI (MDA-MB-435) was > 100 µM and the TGI (MDA-N) was > 100 µM. The TGI (MOLT-4 leukemia) was > 100 µM, the TGI (NCI-H23 lung) was > 100 µM and the TGI (NCI-H460 lung) was > 100 µM. For the same molecule, the TGI (NCI-H522 lung) was > 100 µM, the TGI (NCI/ADR-RES ovarian) was > 100 µM and the TGI (OVCAR-3 ovarian) was > 100 µM. The TGI (OVCAR-4 ovarian) was > 100 µM, the TGI (OVCAR-5 ovarian) was > 100 µM and the TGI (OVCAR-8 ovarian) was > 100 µM. The TGI (PC-3 prostate) was > 100 µM, the TGI (RPMI-8226 leukemia) was > 100 µM and the TGI (RXF 393 renal) was > 100 µM. The TGI (SF-268 CNS) was > 100 µM, the TGI (SF-295 CNS) was > 100 µM and the TGI (SK-MEL-2 melanoma) was > 100 µM. The TGI (SK-MEL-28 melanoma) was > 100 µM, the TGI (SK-MEL-5 melanoma) was > 100 µM and the TGI (SK-OV-3 ovarian) was > 100 µM. The TGI (SN12C renal) was > 100 µM, the TGI (SNB-19 CNS) was > 100 µM and the TGI (SNB-75 CNS) was > 100 µM. The TGI (SR leukemia) was > 100 µM, the TGI (SW-620 colon) was > 100 µM and the TGI (T-47D breast) was > 100 µM. The TGI (TK-10 renal) was > 100 µM, the TGI (U251 CNS) was > 100 µM and the TGI (UACC-257 melanoma) was > 100 µM. The TGI (UACC-62 melanoma) was > 100 µM and the TGI (UO-31 renal) was > 100 µM.
